Blank lines part the entries; values can stand above or below the molecule they belong to. Calls of active or inactive are those of the source. The calls are words filed in the database; no cut-off is given here.
Key:
Peritoneal macrophage [1] = assay: Cytotoxicity against BALB/c mouse peritoneal macrophages after 48 hrs by MTT assay; type: cell-based
Peritoneal macrophage [2] = assay: Induction of NO generation in Leishmania donovani MHOM/IN/AG/83 infected BALB/c mouse peritoneal macrophages assessed as nitrite levels after 48 hrs by Griess assay relative to untreated control; type: functional
Leishmania donovani [3] = assay: Antileishmanial activity against Leishmania donovani MHOM/IN/AG/83 promastigotes after 48 hrs by MTT assay; type: functional, organism-based; conditions: MHOM/IN/AG/83, 48 h
[4] = Therapeutic index, ratio of IC50 for mouse RAW264.7 cells to IC50 for Leishmania donovani MHOM/IN/AG/83 promastigotes; type: toxicity; conditions: read-out: Ratio IC50
[5] = Therapeutic index, ratio of EC50 for BALB/c mouse peritoneal macrophages to EC50 for Leishmania donovani MHOM/IN/AG/83 amastigotes; type: toxicity; conditions: read-out: Ratio EC50
Leishmania donovani [6] = assay: Antileishmanial activity against Leishmania donovani MHOM/IN/AG/83 amastigotes infected in BALB/c mouse peritoneal macrophages after 42 hrs by Giemsa staining-based microscopic analysis; type: functional, organism-based; conditions: MHOM/IN/AG/83, 42 h
RAW264.7 = assay: Cytotoxicity against mouse RAW264.7 cells after 48 hrs by MTT assay; type: cell-based; conditions: RAW264.7, 48 h
Peritoneal macrophage [7] = assay: Induction of innate immune response in Leishmania donovani MHOM/IN/AG/83 infected BALB/c mouse peritoneal macrophages assessed as reduction in arginase 1 activity at 1 to 5 ug/ml incubated for 48 hrs using L-arginine and by spectrometry relative to control; type: functional
Mus musculus [8] = species on record: Mus musculus; assay: Induction of innate immune response in splenocytes derived from compound treated BALB/c mouse infected with Leishmania donovani MHOM/IN/AG/83 assessed as downregulation of IL-10 protein expression by sandwich ELISA; type: functional, organism-based
[9] = Ratio of therapeutic index of test compound to Amphotericin B by measuring ratio of IC50 for BALB/c mouse peritoneal macrophages to IC50 for Leishmania donovani MHOM/IN/AG/83 amastigotes; type: toxicity
Peritoneal macrophage [10] = assay: Induction of NO generation in Leishmania donovani MHOM/IN/AG/83 infected BALB/c mouse peritoneal macrophages assessed as increase in nitrite levels at 5 ug/ml after 48 hrs by Griess assay relative to untreated control; type: functional
Leishmania donovani [11] = assay: (§1) Antileishmanial activity against Leishmania donovani MHOM/IN/AG/83 promastigotes infected in BALB/c mouse assessed as reduction of parasite burden in spleen at 10 mg/kg, iv administered starting 2 weeks of post infection with five days interval between each treatment and measured after 28 days of treatment by Giemsa staining-based assay; type: functional; set-up: scale not given: the % may be the effect or the level left
Mus musculus [12] = species on record: Mus musculus; assay: Induction of innate immune response in splenocytes derived from compound treated BALB/c mouse infected with Leishmania donovani MHOM/IN/AG/83 by Griess assay; type: functional
Peritoneal macrophage [13] = assay: Induction of NO generation in Leishmania donovani MHOM/IN/AG/83 infected BALB/c mouse peritoneal macrophages assessed as increase in nitrite levels at 2.5 ug/ml after 48 hrs by Griess assay relative to untreated control; type: functional
Peritoneal macrophage [14] = assay: Induction of innate immune response in Leishmania donovani MHOM/IN/AG/83 infected BALB/c mouse peritoneal macrophages assessed as upregulation of IL-12 levels at 2.5 ug/ml after 24 hrs by sandwich ELISA; type: functional
[15] = Binding affinity to plasma membrane of mouse RAW264.7 cells at 10 uM using compound with fluorophoric moiety attached via carbamate linkage by fluorescence microscopy; type: ADME, cell-based; conditions: raw264.7, 10 µM
Peritoneal macrophage [16] = assay: Induction of innate immune response in Leishmania donovani MHOM/IN/AG/83 infected BALB/c mouse peritoneal macrophages assessed as upregulation of IL-12 mRNA expression at 2.5 ug/ml after 6 hrs by RT-PCR analysis; type: functional, cell-based
[17] = Ratio of therapeutic index of test compound to Miltefosine by measuring ratio of IC50 for BALB/c mouse peritoneal macrophages to IC50 for Leishmania donovani MHOM/IN/AG/83 amastigotes; type: toxicity
Peritoneal macrophage [18] = assay: Induction of innate immune response in Leishmania donovani MHOM/IN/AG/83 infected BALB/c mouse peritoneal macrophages assessed as downregulation of IL-10 mRNA expression at 2.5 ug/ml after 6 hrs by RT-PCR analysis; type: functional, cell-based
Peritoneal macrophage [19] = assay: Induction of innate immune response in Leishmania donovani MHOM/IN/AG/83 infected BALB/c mouse peritoneal macrophages assessed as increase in iNOS2 mRNA expression at 2.5 ug/ml incubated for 6 hrs by RT-PCR analysis relative to control; type: functional
Leishmania donovani [20] = assay: as §1, with “liver” for “spleen”, “25” for “10”; type: functional; set-up: scale not given: the % may be the effect or the level left
Peritoneal macrophage [21] = assay: Induction of innate immune response in Leishmania donovani MHOM/IN/AG/83 infected BALB/c mouse peritoneal macrophage assessed as downregulation of IL-10 levels at 2.5 ug/ml after 24 hrs by sandwich ELISA; type: functional
Mus musculus [22] = species on record: Mus musculus; assay: Induction of innate immune response in splenocytes derived from compound treated BALB/c mouse infected with Leishmania donovani MHOM/IN/AG/83 assessed as upregulation of IFNgamma protein expression levels by sandwich ELISA; type: functional, organism-based
Mus musculus [23] = species on record: Mus musculus; assay: Induction of innate immune response in splenocytes derived from compound treated BALB/c mouse infected with Leishmania donovani MHOM/IN/AG/83 assessed as upregulation of IL-12 mRNA expression by RT-PCR analysis; type: functional, organism-based
Mus musculus [24] = species on record: Mus musculus; assay: Induction of innate immune response in splenocytes derived from compound treated BALB/c mouse infected with Leishmania donovani MHOM/IN/AG/83 assessed as upregulation of IL-12 protein expression by sandwich ELISA; type: functional, organism-based
Mus musculus [25] = species on record: Mus musculus; assay: Induction of innate immune response in splenocytes derived from compound treated BALB/c mouse infected with Leishmania donovani MHOM/IN/AG/83 assessed as reduction in arginase-1 expression by RT-PCR analysis relative to untreated control; type: functional
Mus musculus [26] = species on record: Mus musculus; assay: Induction of innate immune response in splenocytes derived from compound treated BALB/c mouse infected with Leishmania donovani MHOM/IN/AG/83 assessed as reduction in arginase-1 activity using L-arginine by spectrometry relative to control; type: functional
Leishmania donovani [27] = assay: as §1, with “25” for “10”; type: functional; set-up: scale not given: the % may be the effect or the level left
Mus musculus [28] = species on record: Mus musculus; assay: Induction of innate immune response in splenocytes derived from compound treated BALB/c mouse infected with Leishmania donovani MHOM/IN/AG/83 assessed as upregulation of IFNgamma mRNA expression levels by RT-PCR analysis; type: functional, organism-based
[29] = Drug uptake in mouse RAW264.7 cells assessed as retention time at 10 ug/ml incubated for 3 hrs by HPLC method; type: ADME, cell-based; conditions: raw264.7, 3 h
Peritoneal macrophage [30] = assay: Induction of NO generation in Leishmania donovani MHOM/IN/AG/83 infected BALB/c mouse peritoneal macrophages assessed as increase in nitrite levels at 1 ug/ml after 48 hrs by Griess assay relative to untreated control; type: functional
Leishmania donovani [31] = assay: as §1, with “liver” for “spleen”; type: functional; set-up: scale not given: the % may be the effect or the level left
Mus musculus [32] = species on record: Mus musculus; assay: Induction of innate immune response in splenocytes derived from compound treated BALB/c mouse infected with Leishmania donovani MHOM/IN/AG/83 assessed as downregulation of IL-10 mRNA expression by RT-PCR analysis; type: functional, organism-based
[33] = Drug uptake in mouse RAW264.7 cells assessed as ratio of drug level (cell lysate)/(drug level (supernatant) + drug level (cell lysate) at 10 ug/ml incubated for 3 hrs by HPLC method; type: ADME, cell-based; conditions: raw264.7, 3 h
Mus musculus [34] = species on record: Mus musculus; assay: Induction of innate immune response in splenocytes derived from compound treated BALB/c mouse infected with Leishmania donovani MHOM/IN/AG/83 assessed as increase in iNOS2 mRNA expression by RT-PCR analysis; type: functional

Structure (SMILES): C=CCc1ccc(OCCCCCC)c(OC)c1
- EC50 (Peritoneal macrophage [1]): 272 µM
- Activity (Peritoneal macrophage [2]): Dose-dependent effect
- Activity (Peritoneal macrophage [2]; record 2): 20.81 µM
- IC50 (Leishmania donovani [3]): 80.3 µM
- selectivity ratio [4]: 3.63
- selectivity ratio [5]: 7.6
- EC50 (Leishmania donovani [6]): 36.4 µM
- IC50 (RAW264.7): 292 µM

Structure (SMILES): C=CCc1ccc(OC(=O)CCCCCCCCCCCCCCCCC)c(OC)c1
- EC50 (Peritoneal macrophage [1]): 346 µM
- fold change (FC) (Peritoneal macrophage [7]): 4
- Activity (Peritoneal macrophage [2]): Dose-dependent effect
- Activity (Peritoneal macrophage [2]; record 2): 38.83 µM
- Activity (Mus musculus [8]): Active
- Ratio [9]: 10 to 13
- fold change (FC) (Peritoneal macrophage [10]): 8
- Activity (Leishmania donovani [11]): 72%
- fold change (FC) (Mus musculus [12]): 8
- IC50 (Leishmania donovani [3]): 20.1 µM
- fold change (FC) (Peritoneal macrophage [13]): 7
- selectivity ratio [4]: 15.2
- fold change (FC) (Peritoneal macrophage [14]): 5
- Activity [15]: Active
- Activity (Peritoneal macrophage [16]): Active
- Ratio [17]: 10 to 13
- Activity (Peritoneal macrophage [18]): Active
- fold change (FC) (Peritoneal macrophage [19]): 8
- selectivity ratio [5]: 82.2
- Activity (Leishmania donovani [20]): 92%
- fold change (FC) (Peritoneal macrophage [21]): 3
- Activity (Mus musculus [22]): Active
- EC50 (Leishmania donovani [6]): 4.25 µM
- Activity (Mus musculus [23]): Active
- Activity (Mus musculus [24]): Active
- fold change (FC) (Mus musculus [25]): 4
- fold change (FC) (Mus musculus [26]): 4
- Activity (Leishmania donovani [27]): 87%
- Activity (Mus musculus [28]): Active
- Retention_time [29]: 3.173 min
- fold change (FC) (Peritoneal macrophage [30]): 3
- Activity (Leishmania donovani [31]): 81%
- Activity (Mus musculus [32]): Active
- Ratio [33]: 0.62
- IC50 (RAW264.7): 305 µM
- fold change (FC) (Mus musculus [34]): 8

Structure (SMILES): C=CCc1ccc(OC(=O)c2c[nH]c3ccccc23)c(OC)c1
- EC50 (Peritoneal macrophage [1]): 496 µM
- Activity (Peritoneal macrophage [2]): Dose-dependent effect
- Activity (Peritoneal macrophage [2]; record 2): 26.24 µM
- IC50 (Leishmania donovani [3]): 60.5 µM
- selectivity ratio [4]: 8.11
- selectivity ratio [5]: 19.7
- EC50 (Leishmania donovani [6]): 25.3 µM
- IC50 (RAW264.7): 485 µM

Structure (SMILES): C=CCc1ccc(OC(=O)CCC)c(OC)c1
- EC50 (Peritoneal macrophage [1]): 191 µM
- Activity (Peritoneal macrophage [2]): Dose-dependent effect
- Activity (Peritoneal macrophage [2]; record 2): 23.08 µM
- IC50 (Leishmania donovani [3]): 64.5 µM
- selectivity ratio [4]: 3.61
- selectivity ratio [5]: 2.71
- EC50 (Leishmania donovani [6]): 72.1 µM
- IC50 (RAW264.7): 233 µM

Structure (SMILES): C=CCc1ccc(OCCCCC)c(OC)c1
- EC50 (Peritoneal macrophage [1]): 164 µM
- Activity (Peritoneal macrophage [2]): Dose-dependent effect
- Activity (Peritoneal macrophage [2]; record 2): 12.95 µM
- IC50 (Leishmania donovani [3]): 90.8 µM
- selectivity ratio [4]: 1.96
- selectivity ratio [5]: 1.97
- EC50 (Leishmania donovani [6]): 83.4 µM
- IC50 (RAW264.7): 178 µM

Continued, in another order:

- EC50 (Leishmania donovani [6]): 26.7 µM
Structure (SMILES): C=CCc1ccc(OC(=O)c2ccc([N+](=O)[O-])cc2)c(OC)c1
- EC50 (Peritoneal macrophage [1]): 244 µM
- Activity (Peritoneal macrophage [2]): Dose-dependent effect
- Activity (Peritoneal macrophage [2]; record 2): 27.28 µM
- IC50 (Leishmania donovani [3]): 82.4 µM
- selectivity ratio [4]: 3.18
- selectivity ratio [5]: 9.21
- IC50 (RAW264.7): 261 µM

- EC50 (Leishmania donovani [6]): 147 µM
Structure (SMILES): C=CCc1ccc(OCCCC)c(OC)c1 [N-BUTYLEUGENOL]
- EC50 (Peritoneal macrophage [1]): 345 µM
- Activity (Peritoneal macrophage [2]): Dose-dependent effect
- Activity (Peritoneal macrophage [2]; record 2): 14.23 µM
- IC50 (Leishmania donovani [3]): 309 µM
- selectivity ratio [4]: 1.07
- selectivity ratio [5]: 2.35
- IC50 (RAW264.7): 329 µM

- EC50 (Leishmania donovani [6]): 101 µM
Structure (SMILES): C=CCc1ccc(OC(=O)CCCCC)c(OC)c1
- EC50 (Peritoneal macrophage [1]): 477 µM
- Activity (Peritoneal macrophage [2]): Dose-dependent effect
- Activity (Peritoneal macrophage [2]; record 2): 18.29 µM
- IC50 (Leishmania donovani [3]): 162 µM
- selectivity ratio [4]: 3.21
- selectivity ratio [5]: 4.76
- IC50 (RAW264.7): 517 µM
